How the values were obtained:
Rat [1] = test: concentration in plasma after dosing; details: dosed: Fluorotelomer alcohol 8+2, 40 mg/kg, iv, Female, Harlan Sprague-Dawley
Rat [2] = test: concentration in brain after dosing; details: 3 h; dosed: Fluorotelomer alcohol 8+2; 24 mg/kg; oral; Male; Harlan Sprague Dawley
Rat [3] = test: concentration in brain after dosing; details: 12 h; dosed: Fluorotelomer alcohol 8+2; 80 mg/kg; oral; Female; Harlan Sprague Dawley
Rat [4] = test: concentration in liver after dosing; details: 6 h; dosed: Fluorotelomer alcohol 8+2; 24 mg/kg; oral; Male; Harlan Sprague Dawley
Rat [5] = test: concentration in plasma after dosing; details: dosed: Fluorotelomer alcohol 8+2, 12 mg/kg, iv, Male, F344
Rat [6] = test: concentration in plasma after dosing; details: 22 h; dosed: Primidone; 80 mg/kg; oral; Female; F344
Rat [7] = test: concentration in plasma after dosing; details: dosed: Perfluorodecanoic acid, 2 mg/kg, iv, Male, F344
Rat [8] = test: concentration in brain after dosing; details: 1848 h; dosed: Perfluorodecanoic acid; 10 mg/kg; oral; Male; Harlan Sprague Dawley
Rat [9] = test: concentration in plasma after dosing; details: 2520 h; dosed: Perfluorodecanoic acid; 2 mg/kg; iv; Male; F344
Rat [10] = test: concentration in plasma after dosing; details: dosed: Perfluorodecanoic acid, 2 mg/kg, iv, Male, F344; remark: listed apart in the source
Rat [11] = test: concentration in liver after dosing; details: 1848 h; dosed: Perfluorodecanoic acid; 10 mg/kg; oral; Male; Harlan Sprague Dawley
Rat [12] = test: concentration in plasma after dosing; details: dosed: Bis 2-Chloroethoxy Methane, 40 mg/kg, iv, Male, Harlan Sprague Dawley
Rat [13] = test: concentration in plasma after dosing; details: 4 h; dosed: Bis 2-Chloroethoxy Methane; 40 mg/kg; iv; Male; Harlan Sprague Dawley
Rat [14] = test: concentration in heart after dosing; details: 5 h; dosed: Bis 2-Chloroethoxy Methane; 20 mg/kg; iv; Male; F344
Rat [15] = test: concentration in plasma after dosing; details: dosed: Bis 2-Chloroethoxy Methane, 40 mg/kg, iv, Male, Harlan Sprague Dawley; remark: listed apart in the source
Rat [16] = test: concentration in liver after dosing; details: 3 h; dosed: Bis 2-Chloroethoxy Methane; 20 mg/kg; iv; Male; F344
Rat [17] = test: concentration in heart after dosing; details: 5 h; dosed: Bis 2-Chloroethoxy Methane; 20 mg/kg; iv; Female; F344
Rat [18] = test: concentration in plasma after dosing; details: dosed: Bis 2-Chloroethoxy Methane, 40 mg/kg, iv, Male, Harlan Sprague Dawley; remark: listed apart in the source
Rat [19] = test: concentration in thymus after dosing; details: 2 h; dosed: Bis 2-Chloroethoxy Methane; 20 mg/kg; iv; Female; F344
Rat [20] = test: concentration in thymus after dosing; details: 3 h; dosed: Bis 2-Chloroethoxy Methane; 20 mg/kg; iv; Male; F344
Rat [21] = test: concentration in liver after dosing; details: 1 h; dosed: Bis 2-Chloroethoxy Methane; 20 mg/kg; iv; Male; F344
Rat [22] = test: concentration in plasma after dosing; details: dosed: dichloroacetic acid, 100 mg/kg, oral, Male, F344
Rat [23] = test: concentration in plasma after dosing; details: 0.25 h; dosed: Wyeth-14643; 5.0 mg/kg; oral; Male; Sprague-Dawley
Rat [24] = test: concentration in plasma after dosing; details: dosed: Wyeth-14643, 2.0 mg/kg, oral, Male, Sprague-Dawley
Rat [25] = test: concentration in plasma after dosing; details: 3 h; dosed: Wyeth-14643; 2.0 mg/kg; oral; Male; Sprague-Dawley
Rat [26] = test: concentration in plasma after dosing; details: dosed: Wyeth-14643, 2.0 mg/kg, iv, Male, Sprague-Dawley
Rat [27] = test: concentration in plasma after dosing; details: 4 h; dosed: Thiodiglycolic Acid; 20 mg/kg; iv; Male; Harlan Sprague Dawley
Rat [28] = test: concentration in liver after dosing; details: 2 h; dosed: Thiodiglycolic Acid; 20 mg/kg; iv; Female; Harlan Sprague Dawley
Rat [29] = test: concentration in heart after dosing; details: 2 h; dosed: Thiodiglycolic Acid; 20 mg/kg; iv; Female; Harlan Sprague Dawley
Rat [30] = test: concentration in heart after dosing; details: 4 h; dosed: Thiodiglycolic Acid; 20 mg/kg; iv; Male; Harlan Sprague Dawley
Rat [31] = test: concentration in thymus after dosing; details: 3 h; dosed: Thiodiglycolic Acid; 20 mg/kg; iv; Female; Harlan Sprague Dawley
Rat [32] = test: concentration in liver after dosing; details: 5.333 h; dosed: Thiodiglycolic Acid; 20 mg/kg; iv; Female; Harlan Sprague Dawley
Rat [33] = test: concentration in heart after dosing; details: 6.667 h; dosed: Thiodiglycolic Acid; 20 mg/kg; iv; Female; Harlan Sprague Dawley
Rat [34] = test: concentration in liver after dosing; details: 10 min; dosed: Thiodiglycolic Acid; 20 mg/kg; iv; Female; Harlan Sprague Dawley
Rat [35] = test: concentration in thymus after dosing; details: 6.667 h; dosed: Thiodiglycolic Acid; 20 mg/kg; iv; Female; Harlan Sprague Dawley
Rat [36] = test: concentration in plasma after dosing; details: 3 h; dosed: Di-n-butyl phthalate; 100 mg/kg; oral; Male; Sprague-Dawley
Rat [37] = test: concentration in plasma after dosing; details: 5 min; dosed: Di-n-butyl phthalate; 50 mg/kg; oral; Male; Sprague-Dawley
Rat [38] = test: concentration in plasma after dosing; details: 20 min; dosed: Di-n-butyl phthalate; 50 mg/kg; oral; Male; Sprague-Dawley

Compound: OCCC(F)(F)C(F)(F)C(F)(F)C(F)(F)C(F)(F)C(F)(F)C(F)(F)C(F)(F)F [Fluorotelomer alcohol 8+2]
- concentration in plasma (Rat [1]; 1 h): 2530 ng/mL
- concentration in plasma (Rat [1]; 24 h): 24.5 ng/mL
- concentration in brain (Rat [2]): 1780 ng/g
- concentration in brain (Rat [3]): 164 ng/g
- concentration in liver (Rat [4]): 1250 ng/g
- concentration in plasma (Rat [5]; 0.25 h): 1430 ng/mL
- concentration in plasma (Rat [5]; 24 h): 10.2 ng/mL

Compound: CCC1(c2ccccc2)C(=O)NC(=O)NC1=O [Phenobarbital]
- concentration in plasma (Rat [6]): 1.71 µg/mL

Compound: O=C(O)C(F)(F)C(F)(F)C(F)(F)C(F)(F)C(F)(F)C(F)(F)C(F)(F)C(F)(F)C(F)(F)F [Perfluorodecanoic acid]
- concentration in plasma (Rat [7]; 1 h): 6010 ng/mL
- concentration in plasma (Rat [7]; 528 h): 3220 ng/mL
- concentration in plasma (Rat [7]; 3360 h): 204 ng/mL
- concentration in brain (Rat [8]): 644 ng/g
- concentration in plasma (Rat [9]): 209 ng/mL
- concentration in plasma (Rat [10]; 5 min): 7460 ng/mL
- concentration in plasma (Rat [10]; 192 h): 3420 ng/mL
- concentration in plasma (Rat [10]; 2520 h): 283 ng/mL
- concentration in liver (Rat [11]): 32000 ng/g

Compound: ClCCOCOCCCl [Bis 2-Chloroethoxy Methane]
- concentration in plasma (Rat [12]; 10 min): 22300 ng/mL
- concentration in plasma (Rat [12]; 5.333 h): 72.8 ng/mL
- concentration in plasma (Rat [13]): 238 ng/mL
- concentration in heart (Rat [14]): 42.1 ng/g
- concentration in plasma (Rat [15]; 1 h): 4820 ng/mL
- concentration in plasma (Rat [15]; 9.667 h): 15.4 ng/mL
- concentration in liver (Rat [16]): 104 ng/g
- concentration in heart (Rat [17]): 27.4 ng/g
- concentration in plasma (Rat [18]; 40 min): 6610 ng/mL
- concentration in plasma (Rat [18]; 8 h): 15.5 ng/mL
- concentration in thymus (Rat [19]): 264 ng/g
- concentration in thymus (Rat [20]): 134 ng/g
- concentration in liver (Rat [21]): 2410 ng/g

Compound: O=C(O)C(Cl)Cl [dichloroacetic acid]
- concentration in plasma (Rat [22]; 20 min): 15.9 µg/mL
- concentration in plasma (Rat [22]; 8 h): 25 µg/mL

Compound: Cc1cccc(Nc2cc(Cl)nc(SCC(=O)O)n2)c1C
- concentration in plasma (Rat [23]): 10.6 µg/mL
- concentration in plasma (Rat [24]; 2 h): 0.656 µg/mL
- concentration in plasma (Rat [24]; 7 h): 0.12 µg/mL
- concentration in plasma (Rat [25]): 0.382 µg/mL
- concentration in plasma (Rat [26]; 5 min): 1.06 µg/mL
- concentration in plasma (Rat [26]; 4 h): 0.477 µg/mL

Compound: O=C(O)CSCC(=O)O [Thiodiglycolic Acid]
- concentration in plasma (Rat [27]): 339 ng/mL
- concentration in liver (Rat [28]): 39600 ng/g
- concentration in heart (Rat [29]): 1640 ng/g
- concentration in heart (Rat [30]): 527 ng/g
- concentration in thymus (Rat [31]): 1030 ng/g
- concentration in liver (Rat [32]): 47900 ng/g
- concentration in heart (Rat [33]): 246 ng/g
- concentration in liver (Rat [34]): 10200 ng/g
- concentration in thymus (Rat [35]): 263 ng/g

Compound: CCCCOC(=O)c1ccccc1C(=O)O [Mono-n-butyl phthalate]
- concentration in plasma (Rat [36]): 1.19 µg/mL
- concentration in plasma (Rat [37]): 4.78 µg/mL
- concentration in plasma (Rat [38]): 32.4 µg/mL

Reference: EPA's CvTdb concentration-time database
